These results are taken from patent US20220347168A1, “LUNG TARGETED ANTICANCER THERAPIES WITH LIPOSOMAL ANNAMYCIN” (Board of Regents, The University of Texas System, priority 2019, published 2022).

The structures appear in SMILES notation.

Data set [1] can be described thus: Pharmacokinetic and organ distribution studies of Annamycin and L-Annamycin. Type of data set: in vivo. The conditions noted are these: CD-1, mouse, lung and plasma, intravenous, 4 mg/kg; AUC, 24 h; read-out: Annamycin levels (AUC, 24 h) in lungs relative to plasma.
Another data set has as its target P-glycoprotein 1 (P-gp) (Homo sapiens, UniProt P08183). The conditions noted are these: earlier studies; cited from earlier work.
Data set [2] relates to multidrug resistant (MDR) cell lines. The settings on record: earlier studies; cited from earlier work.

Sequence of P-glycoprotein 1 (P-gp) (P08183 whole entry, species assumed): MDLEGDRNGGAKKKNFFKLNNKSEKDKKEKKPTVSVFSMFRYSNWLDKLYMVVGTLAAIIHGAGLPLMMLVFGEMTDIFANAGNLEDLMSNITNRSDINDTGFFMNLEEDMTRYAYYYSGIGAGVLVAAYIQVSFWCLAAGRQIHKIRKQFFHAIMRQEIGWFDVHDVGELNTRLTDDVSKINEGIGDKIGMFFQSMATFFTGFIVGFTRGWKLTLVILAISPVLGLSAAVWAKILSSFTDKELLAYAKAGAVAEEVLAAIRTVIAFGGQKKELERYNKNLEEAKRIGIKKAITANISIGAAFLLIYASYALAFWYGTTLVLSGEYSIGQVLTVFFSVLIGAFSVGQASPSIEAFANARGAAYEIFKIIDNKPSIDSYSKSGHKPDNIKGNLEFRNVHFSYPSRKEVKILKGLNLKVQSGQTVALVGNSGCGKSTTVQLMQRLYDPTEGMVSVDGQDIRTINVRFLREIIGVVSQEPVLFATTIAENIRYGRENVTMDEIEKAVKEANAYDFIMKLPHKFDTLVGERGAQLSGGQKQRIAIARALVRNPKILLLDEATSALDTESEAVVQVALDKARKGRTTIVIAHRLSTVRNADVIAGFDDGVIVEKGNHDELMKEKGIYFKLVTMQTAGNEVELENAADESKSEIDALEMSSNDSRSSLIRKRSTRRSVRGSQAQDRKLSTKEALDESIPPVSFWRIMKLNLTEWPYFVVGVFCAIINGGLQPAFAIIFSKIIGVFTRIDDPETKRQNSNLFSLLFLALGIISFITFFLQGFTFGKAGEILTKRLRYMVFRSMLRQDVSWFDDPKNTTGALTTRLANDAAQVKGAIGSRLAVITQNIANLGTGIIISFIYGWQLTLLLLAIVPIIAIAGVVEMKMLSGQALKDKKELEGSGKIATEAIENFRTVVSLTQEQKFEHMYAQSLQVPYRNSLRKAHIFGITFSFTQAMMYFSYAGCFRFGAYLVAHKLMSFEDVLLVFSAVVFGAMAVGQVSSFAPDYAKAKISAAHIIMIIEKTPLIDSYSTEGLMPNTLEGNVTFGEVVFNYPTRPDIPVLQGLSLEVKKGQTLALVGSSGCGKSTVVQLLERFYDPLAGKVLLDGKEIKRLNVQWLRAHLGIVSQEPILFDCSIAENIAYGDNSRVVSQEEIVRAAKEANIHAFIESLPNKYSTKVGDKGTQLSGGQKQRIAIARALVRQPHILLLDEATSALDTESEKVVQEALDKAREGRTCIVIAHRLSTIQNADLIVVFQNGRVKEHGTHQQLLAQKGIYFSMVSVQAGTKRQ

For the molecule `C[C@@H]1O[C@@H](O[C@H]2C[C@](O)(C(=O)CO)Cc3c(O)c4c(c(O)c32)C(=O)c2ccccc2C4=O)[C@H](I)[C@H](O)[C@H]1O` [Annamycin, (7S,9S)-7-(((2R,3R,4R,5R,6S)-4,5-dihydroxy-3-iodo-6-methyltetrahydro-2H-pyran-2-yl)oxy)-6,9,11-trihydroxy-9-(2-hydroxyacetyl)-7,8,9,10-tetrahydrotetracene-5,12-dione], the Kp in data set [1] is > 10. The “substrate for P-glycoprotein 1 (P-gp)” value at P-glycoprotein 1 (P-gp) was “poor substrate”. The “cross-resistance with doxorubicin (DOX)” value in data set [2] is “not cross-resistant”.
